Results taken from patent publication US20250229073A1, “TRANSIENT DISRUPTION OF THE NEUROVASCULAR BARRIER OF A HUMAN AND USES THEREOF FOR TREATING AMYOTROPHIC LATERAL SCLEROSIS” (SORBONNE UNIVERSITE, priority 2022, published 2025).

Tests used:
[1] = Blood spinal cord barrier opening assessed by Evan's Blue Dye spinal cord uptake quantification; type: in vivo; settings: healthy WT mice
Description: (§1) A 1-cm, 1 MHz planar ultrasound transducer was coupled to the skin with ultrasound coupling gel and positioned to target the lumbar spinal cord. The peak acoustic pressure was 0.5 MPa for tolerance tests in WT mice and 0.35 MPa was sufficient for blood spinal cord disruption assessment and for ALS mouse procedures (FIG. 1). At the beginning of the sonication, 0.2 mL of microbubbles (SonoVue, Bracco®) were injected intravenously. Twenty-four mice were used to test the sonication protocol
Blood spinal cord opening was assessed on 27 WT mice with Evan's Blue Dye (EBD) spinal cord uptake quantification.
(§2) The spinal cord was removed and frozen in liquid nitrogen. • For immunohistological analysis and motor neuron count (fixed tissues), the mice were perfused transcardially with 20 mL PBS then 50 mL of 4% paraformaldehyde in phosphate buffer. The spinal cord was extracted, and placed for 4 hours in 4% paraformaldehyde for post-fixation and then cryopreserved in a 30% sucrose solution in PBS before freezing. Thirty-micron thick transverse sections were cut on a cryostat at −18° C. Floating segments of spinal cord were stored in phosphate buffered saline solution at 4° C. Motor neuron counts were determined on serial sections across the lumbar spinal cords (15-20 sections per animal) after Nissl staining. • For immunostaining, sections were incubated overnight at room temperature with the following antibodies: rabbit anti-Iba1 (1:500 Wako Chemicals), anti-GFAP (1:500 Dako anti GFAP), rat anti-CD4 (1:100, AbD Serotec), rat anti CD3 (1:100, AbD Serotec), rat anti CD8 (1:100, AbD Serotec, rabbit polyclonal to human SOD1 (1:10000, Abcam). Species specific Alexa Fluor 488, 594, 647 (1:1000 Life Technologies) were used as secondary antibodies
GraphPad (GraphPad Software, San Diego, CA) was used for all statistical analysis. Statistical significance was set at p≤0.05. […] A Log-rank P value was calculated with Mantel-Cox test to compare the survival curves and corrected with the Bonferroni coefficient.

[2] = system: patients suffering from ALS; settings: clinical, literature; cited from earlier work
SOD1^G93A ALS mice [3] = test: Histological analysis of spinal cord of the ALS treated mice (immunostaining, motor neuron counts); type: in vivo
From the text: The onset of disease was defined as the time point at which the mice were at peak weight before they started to lose weight due to progressive motor neuron denervation and muscle wasting, as shown in FIG. 1. The symptomatic stage was defined as the age at which the mice had lost 10% of their maximal weight and is accompanied by gait alterations and failure of hindlimb splaying reflex. This disease stage was followed by progressive paralysis. […] In each group some randomly assigned mice were sacrificed at the symptomatic stage (defined as 10% of weight loss) or at disease end stage for immunohistological analysis.
as §2
GraphPad (GraphPad Software, San Diego, CA) was used for all statistical analysis. Statistical significance was set at p≤0.05. […] Duration of early and late phases between the groups were compared by ANOVA after a normality test and followed by post-hoc Tukey-Kramer Multiple comparison test or Dunnett's multiple comparison test. Motor neuron count, immune activation and SOD1 expression were compared in different group using Kruskall Wallis test. Data are represented as Mean+SEM. Kruskal Wallis non parametric test was used to compare the total number of lymphocytes (CD4 and CD8). Survival analysis (onset disease, end-stage) was performed with Kaplan-Meier statistics. A Log-rank P value was calculated with Mantel-Cox test to compare the survival curves and corrected with the Bonferroni coefficient.

SOD1^G93A ALS mice [4] = test: Clinical and survival evaluation of treated ALS mice; type: in vivo
Description: Eighty Mutant SOD1^G93A female mice modeling ALS [B6.Cg-Tg (SOD1^G93A) 1Gur/J] were purchased from Jackson Laboratories (stock #004435) and 120 wild type control mice (WT), with a C57B16/J genetic background. The animal protocol complied with the European laws for the protection of experimental animals and was approved by the local ethics committee. Mice were maintained on a 12:12 h dark: light cycle with food and water available ad libitum. Moisturized food pellets were supplied when mice became weak. ALS mice were hemizygous for a 12 kb genomic fragment encoding the human wild-type or mutated SOD1 gene under its endogenous promoter. Mice carrying the human SOD1 transgene were identified by PCR screening of tail DNA using mouse SOD1 forward primer (5′-[…]-3′), human SOD1 forward primer (5′-[…]-3′) and mouse and human SOD1 reverse primer (5′-[…]-3′) resulting in a ˜800 bp mouse and a ˜600 bp human SOD1 PCR product.
To represent as close as possible the clinical disease progression in humans, treatment started at the beginning of the disease and not at a presymptomatic stage. SOD1^G93A mice are a particularly severe model in terms of symptoms. The mice quickly become too weak to tolerate general anesthesia, which led us to stop treatments at 135 days of age, or 1 month of treatment (5 sessions). This corresponds approximately to the end of the early phase of the disease.
as §1
Controls and US mice received a subcutaneous injection of 0.9% saline. […]
Muscle strength of mice was assessed by three different motor tests: grip testing, inverted screen testing and wire suspension testing. […]

[5] = IGF1 spinal cord uptake quantification (Quantikine ELISA human IGF-1); type: in vivo; settings: healthy WT mice
Description: A 1-cm, 1 MHz planar ultrasound transducer was coupled to the skin with ultrasound coupling gel and positioned to target the lumbar spinal cord. […] At the beginning of the sonication, 0.2 mL of microbubbles (SonoVue, Bracco®) were injected intravenously. Twenty-four mice were used to test the sonication protocol
Fourteen sonicated lumbar spinal cord were compared to 15 non-sonicated lumbar spinal cord
GraphPad (GraphPad Software, San Diego, CA) was used for all statistical analysis. Statistical significance was set at p≤0.05. […] Data are represented as Mean+SEM.

With `Cc1cc(-c2ccc(/N=N/c3ccc4c(S(=O)(=O)[O-])cc(S(=O)(=O)[O-])c(N)c4c3O)c(C)c2)ccc1/N=N/c1ccc2c(S(=O)(=O)[O-])cc(S(=O)(=O)[O-])c(N)c2c1O.[Na+].[Na+].[Na+].[Na+]` [EBD, Evan's Blue Dye] the “EBD concentration, sonicated compared to non-sonicated segments” value [1] was 3.4 times, the “EBD concentration in spinal cord, non-sonicated segments” value ([1]; non-sonicated segments) was 41 µg/g and the “EBD concentration in spinal cord, sonicated segments” value ([1]; sonicated segments of spinal cord) was 142 µg/g.
In the case of `Nc1nc2ccc(OC(F)(F)F)cc2s1` [riluzole, 2-amino-6-trifluoromethoxybenzothiazole], the “side effects in ALS patients” value [2] is given as “asthenia, spasticity and an increase in the transaminase levels”.
With “IGF1: rhIGF1 (Mecasermine, IPSEN Pharma), Insulin-like Growth Factor 1, subcutaneous injection of 500 μg/kg” the “immunofluorescent area occupied by SOD1, end stage mice” value (SOD1^G93A ALS mice [3]; disease end stage) was “lowest percentage of SOD1”, the “number of lymphocytes (CD3+) per section” value (SOD1^G93A ALS mice [3]; end stage, control 11±3.6) was 28.5±3.8 and the “astrocyte reactivity, immunoreactive area for GFAP” value (SOD1^G93A ALS mice [3]; stage not given, control 12±2.6, unit from FIG. 4 legend) was 5.9±2.5%. For the same compound, the “immunofluorescent area occupied by SOD1, symptomatic mice” value (SOD1^G93A ALS mice [3]; symptomatic stage (10% weight loss)) was “lowest percentage of SOD1”, the “microglial reactivity, Iba1 immunoreactivity” value (SOD1^G93A ALS mice [3]; symptomatic stage, control 10.3±0.6%) was 5±2.1% and the “number of lymphocytes (CD3+) per section” value (SOD1^G93A ALS mice [3]; symptomatic stage, control 13±3.5) was 20±5.3. For the same compound, the “ALS mouse survival (median age)” value (SOD1^G93A ALS mice [4]; SOD1^G93A mice, 5 weekly sessions from P106, control 166.5 days) was 166 days, the “early disease phase duration” value (SOD1^G93A ALS mice [4]; peak weight to 10% weight loss, control 37.4±3.4, b130 gives the gain in days) was 36.8±2.8 and the “effect of IGF1 administration on survival or functional tests” value (SOD1^G93A ALS mice [4]; whether or not associated with ultrasound, 0.5 mg/kg once a week, five injections) was “no additional effect”. For the same compound, the “IGF1 concentration, sonicated compared to non-sonicated” value [5] was 1100 times.
